Results taken from the supplement of paper PMC10307832.

What was measured:
Experiment in all cases: relative viability (nuclei count vs DMSO), 5 days (fraction); higher = more cells survive
NCI-H1975 = tested on: NCI-H1975
Procedure, shortened: (§1)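 Each reported value is a median over duplicate plates. It expresses relative viability: treated-well nuclei count divided by vehicle-well nuclei count. Lung cancer cell lines in 1536-well plates were dosed by pin tool a day after seeding, alone with one drug or with a fixed anchor-drug dose plus five library-drug doses (not always all listed) in √10 steps, and nuclei were counted after 5 days.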

SK-LU-1 = tested on: SK-LU-1
Procedure, shortened: as §1

NCI-H520 = tested on: NCI-H520
Procedure, shortened: as §1

PC-3 [JPC-3] = tested on: PC-3 [JPC-3]
Procedure, shortened: as §1

NCI-H2342 = tested on: NCI-H2342
Procedure, shortened: as §1

NCI-H1792 = tested on: NCI-H1792
Procedure, shortened: as §1

NCI-H1650 = tested on: NCI-H1650
Procedure, shortened: as §1

NCI-H23 = tested on: NCI-H23
Procedure, shortened: as §1

EKVX = tested on: EKVX
Procedure, shortened: as §1

NCI-H661 = tested on: NCI-H661
Procedure, shortened: as §1

NCI-H441 = tested on: NCI-H441
Procedure, shortened: as §1

NCI-H460 = tested on: NCI-H460
Procedure, shortened: as §1

NCI-H1437 = tested on: NCI-H1437
Procedure, shortened: as §1

NCI-H1666 = tested on: NCI-H1666
Procedure, shortened: as §1

NCI-H838 = tested on: NCI-H838
Procedure, shortened: as §1

NCI-H322M = tested on: NCI-H322M
Procedure, shortened: as §1

NCI-H596 = tested on: NCI-H596
Procedure, shortened: as §1

NCI-H522 = tested on: NCI-H522
Procedure, shortened: as §1

NCI-H727 = tested on: NCI-H727
Procedure, shortened: as §1

NCI-H647 = tested on: NCI-H647
Procedure, shortened: as §1

NCI-H1915 = tested on: NCI-H1915
Procedure, shortened: as §1

LCLC-97TM1 = tested on: LCLC-97TM1
Procedure, shortened: as §1

NCI-H358 = tested on: NCI-H358
Procedure, shortened: as §1

CCNC(=O)c1noc(-c2cc(C(C)C)c(O)cc2O)c1-c1ccc(CN2CCOCC2)cc1 [Luminespib] + Cc1nc(Nc2ncc(C(=O)Nc3c(C)cccc3Cl)s2)cc(N2CCN(CCO)CC2)n1 [Dasatinib] (partner 0.075 µM)
relative viability (NCI-H1975; first compound 0.002 µM): 0.382 | relative viability (NCI-H1975; first compound 0.006325 µM): 0.347 | relative viability (NCI-H1975; first compound 0.02 µM): 0.14 | relative viability (NCI-H1975; first compound 0.06325 µM): 0.093 | relative viability (NCI-H1975; first compound 0.2 µM): 0.0892 | relative viability (SK-LU-1; first compound 0.002 µM): 0.194 | relative viability (SK-LU-1; first compound 0.006325 µM): 0.167 | relative viability (SK-LU-1; first compound 0.02 µM): 0.077 | relative viability (SK-LU-1; first compound 0.06325 µM): 0.049 | relative viability (SK-LU-1; first compound 0.2 µM): 0.0612 | relative viability (NCI-H520; first compound 0.002 µM): 0.17 | relative viability (NCI-H520; first compound 0.006325 µM): 0.209 | relative viability (NCI-H520; first compound 0.02 µM): 0.198 | relative viability (NCI-H520; first compound 0.06325 µM): 0.151 | relative viability (NCI-H520; first compound 0.2 µM): 0.173 | relative viability (PC-3 [JPC-3]; first compound 0.002 µM): 0.99 | relative viability (PC-3 [JPC-3]; first compound 0.006325 µM): 0.945 | relative viability (PC-3 [JPC-3]; first compound 0.02 µM): 0.829 | relative viability (PC-3 [JPC-3]; first compound 0.06325 µM): 0.863 | relative viability (PC-3 [JPC-3]; first compound 0.2 µM): 0.25 | relative viability (NCI-H2342; first compound 0.002 µM): 0.351 | relative viability (NCI-H2342; first compound 0.006325 µM): 0.33 | relative viability (NCI-H2342; first compound 0.02 µM): 0.287 | relative viability (NCI-H2342; first compound 0.06325 µM): 0.259 | relative viability (NCI-H2342; first compound 0.2 µM): 0.311 | relative viability (NCI-H1792; first compound 0.002 µM): 0.737 | relative viability (NCI-H1792; first compound 0.006325 µM): 0.619 | relative viability (NCI-H1792; first compound 0.02 µM): 0.722 | relative viability (NCI-H1792; first compound 0.06325 µM): 0.361 | relative viability (NCI-H1792; first compound 0.2 µM): 0.242 | relative viability (NCI-H1650; first compound 0.002 µM): 0.326 | relative viability (NCI-H1650; first compound 0.006325 µM): 0.252 | relative viability (NCI-H1650; first compound 0.02 µM): 0.162 | relative viability (NCI-H1650; first compound 0.06325 µM): 0.192 | relative viability (NCI-H1650; first compound 0.2 µM): 0.168 | relative viability (NCI-H23; first compound 0.002 µM): 0.839 | relative viability (NCI-H23; first compound 0.006325 µM): 0.765 | relative viability (NCI-H23; first compound 0.02 µM): 0.517 | relative viability (NCI-H23; first compound 0.06325 µM): 0.118 | relative viability (NCI-H23; first compound 0.2 µM): 0.13 | relative viability (EKVX; first compound 0.002 µM): 0.311 | relative viability (EKVX; first compound 0.006325 µM): 0.509 | relative viability (EKVX; first compound 0.02 µM): 0.403 | relative viability (EKVX; first compound 0.06325 µM): 0.515 | relative viability (EKVX; first compound 0.2 µM): 0.393 | relative viability (NCI-H661; first compound 0.002 µM): 0.891 | relative viability (NCI-H661; first compound 0.006325 µM): 0.954 | relative viability (NCI-H661; first compound 0.02 µM): 0.662 | relative viability (NCI-H661; first compound 0.06325 µM): 0.286 | relative viability (NCI-H661; first compound 0.2 µM): 0.233 | relative viability (NCI-H441; first compound 0.002 µM): 0.579 | relative viability (NCI-H441; first compound 0.006325 µM): 0.649 | relative viability (NCI-H441; first compound 0.02 µM): 0.329 | relative viability (NCI-H441; first compound 0.06325 µM): 0.132 | relative viability (NCI-H441; first compound 0.2 µM): 0.114 | relative viability (NCI-H460; first compound 0.002 µM): 0.462 | relative viability (NCI-H460; first compound 0.006325 µM): 0.481 | relative viability (NCI-H460; first compound 0.02 µM): 0.251 | relative viability (NCI-H460; first compound 0.06325 µM): 0.0185 | relative viability (NCI-H460; first compound 0.2 µM): 0.0168 | relative viability (NCI-H1437; first compound 0.002 µM): 0.421 | relative viability (NCI-H1437; first compound 0.006325 µM): 0.316 | relative viability (NCI-H1437; first compound 0.02 µM): 0.255 | relative viability (NCI-H1437; first compound 0.06325 µM): 0.252 | relative viability (NCI-H1437; first compound 0.2 µM): 0.126 | relative viability (NCI-H1666; first compound 0.002 µM): 0.873 | relative viability (NCI-H1666; first compound 0.006325 µM): 0.711 | relative viability (NCI-H1666; first compound 0.02 µM): 0.904 | relative viability (NCI-H1666; first compound 0.06325 µM): 0.85 | relative viability (NCI-H1666; first compound 0.2 µM): 0.748 | relative viability (NCI-H838; first compound 0.002 µM): 0.301 | relative viability (NCI-H838; first compound 0.006325 µM): 0.281 | relative viability (NCI-H838; first compound 0.02 µM): 0.233 | relative viability (NCI-H838; first compound 0.06325 µM): 0.189 | relative viability (NCI-H838; first compound 0.2 µM): 0.203 | relative viability (NCI-H322M; first compound 0.002 µM): 0.234 | relative viability (NCI-H322M; first compound 0.006325 µM): 0.262 | relative viability (NCI-H322M; first compound 0.02 µM): 0.215 | relative viability (NCI-H322M; first compound 0.06325 µM): 0.268 | relative viability (NCI-H322M; first compound 0.2 µM): 0.276 | relative viability (NCI-H596; first compound 0.002 µM): 0.529 | relative viability (NCI-H596; first compound 0.006325 µM): 0.614 | relative viability (NCI-H596; first compound 0.02 µM): 0.426 | relative viability (NCI-H596; first compound 0.06325 µM): 0.479 | relative viability (NCI-H596; first compound 0.2 µM): 0.511 | relative viability (NCI-H522; first compound 0.002 µM): 1.1 | relative viability (NCI-H522; first compound 0.006325 µM): 0.936 | relative viability (NCI-H522; first compound 0.02 µM): 0.776 | relative viability (NCI-H522; first compound 0.06325 µM): 0.577 | relative viability (NCI-H522; first compound 0.2 µM): 0.481 | relative viability (NCI-H727; first compound 0.002 µM): 0.358 | relative viability (NCI-H727; first compound 0.006325 µM): 0.331 | relative viability (NCI-H727; first compound 0.02 µM): 0.257 | relative viability (NCI-H727; first compound 0.06325 µM): 0.278 | relative viability (NCI-H727; first compound 0.2 µM): 0.304 | relative viability (NCI-H647; first compound 0.002 µM): 0.199 | relative viability (NCI-H647; first compound 0.006325 µM): 0.13 | relative viability (NCI-H647; first compound 0.02 µM): 0.13 | relative viability (NCI-H647; first compound 0.06325 µM): 0.0549 | relative viability (NCI-H647; first compound 0.2 µM): 0.0598 | relative viability (NCI-H1915; first compound 0.002 µM): 0.311 | relative viability (NCI-H1915; first compound 0.006325 µM): 0.299 | relative viability (NCI-H1915; first compound 0.02 µM): 0.234 | relative viability (NCI-H1915; first compound 0.06325 µM): 0.236 | relative viability (NCI-H1915; first compound 0.2 µM): 0.0739 | relative viability (LCLC-97TM1; first compound 0.002 µM): 0.884 | relative viability (LCLC-97TM1; first compound 0.006325 µM): 0.721 | relative viability (LCLC-97TM1; first compound 0.02 µM): 0.986 | relative viability (LCLC-97TM1; first compound 0.06325 µM): 0.726 | relative viability (LCLC-97TM1; first compound 0.2 µM): 0.106 | relative viability (NCI-H358; first compound 0.002 µM): 0.149 | relative viability (NCI-H358; first compound 0.006325 µM): 0.164 | relative viability (NCI-H358; first compound 0.02 µM): 0.0956 | relative viability (NCI-H358; first compound 0.06325 µM): 0.0558 | relative viability (NCI-H358; first compound 0.2 µM): 0.0633
